Experimental findings from US9086405B2, “Animal stroke model” (UNIVERSITY OF PRINCE EDWARD ISLAND, priority 2010, dated 2015) are described below.

Test [1] relates to male Sprague-Dawley rats. The test is described as follows: Suture-induced "permanent" (6-hour) MCAO, infarct volume by TTC staining. To be noted: for infarct size: p<0.05, FIG. 6. Type of test: in vivo, rat.
Test [2] has as its system male Sprague-Dawley rats. The test is described as follows: Suture-induced MCAO (30 minutes) followed by 5.5 hours of reperfusion, infarct volume by TTC staining. Type of test: in vivo, rat. To be noted: for infarct size / neuroprotection (infarct volume): 5.5 hours reperfusion; for infarct size: p<0.05, FIG. 7; for neuroprotective effect (infarct volume): vs vehicle, FIG. 9; for neuroprotection (infarct volume): inosine 16 mg/kg after 30 mins of occlusion prior to suture removal.

“Also recorded” adds a separate entry of the source.

Take `CC1=NN(c2ccccc2)C(=O)C1` [edaravone]: the infarct size entry in the test on male Sprague-Dawley rats [1] (edaravone 10, 20 or 40 mg/kg i.v. 30 minutes prior to 6 hours of suture induced-MCAO, vs vehicle 50% DMSO in saline) is on record as “significant decreases in infarct size; also recorded: significant levels of neuroprotection”; with male Sprague-Dawley rats [2] (edaravone 5, 10 or 20 mg/kg i.v. after 30 minutes of MCAO (immediately prior to suture removal), vs 50% DMSO in saline) it was “significant decreases in infarct size; also recorded: showed neuroprotective abilities”; with male Sprague-Dawley rats [2] (edaravone 5, 10 or 20 mg/kg i.v. after 30 minutes of MCAO (immediately prior to suture removal), vs 50% DMSO in saline, listed as Edaravone) it was “very powerful neuroprotection”.

Consider `Nc1nc2c(ncn2[C@@H]2O[C@H](CO)[C@@H](O)[C@H]2O)c(=O)[nH]1` [guanosine], for which the infarct volume result with male Sprague-Dawley rats [1] (guanosine 1, 2, 4, 8 or 16 mg/kg intraperitoneally 30 minutes prior to "permanent" (6-hour) occlusion, FIG. 8) was “decrease in infarct volume; also recorded: reduced infarct size”; in the test on male Sprague-Dawley rats [2] (guanosine 1, 2, 4, 8 or 16 mg/kg intraperitoneally 30 minutes after MCAO (prior to suture removal), 5.5 h reperfusion, FIG. 8), “dose-dependent decrease in infarct volume”. Moreover, the “neuroprotective effect (infarct volume)” value with male Sprague-Dawley rats [2] (guanosine 16 mg/kg injected 30 minutes (+30) after occlusion, immediately prior to suture removal) was “greatest benefit; also recorded: most prominent”; in the test with male Sprague-Dawley rats [2] (guanosine 16 mg/kg injected 60 minutes (+60) from start of MCAO, 30 minutes post-suture removal) it was “significant benefit; also recorded: significant neuroprotection”.

Take `OC[C@H]1O[C@@H](n2cnc3c(O)ncnc32)[C@H](O)[C@@H]1O` [inosine]: the “neuroprotection (infarct volume)” value with male Sprague-Dawley rats [2] (FIG. 8) is “No neuroprotection”; with male Sprague-Dawley rats [2] (FIG. 8, listed as Inosine) it was “did not cause neuroprotection”.

estrogen: the infarct size entry in the test on male Sprague-Dawley rats [1] (estrogen 1×10-2 mg/kg i.v. 30 minutes prior to 6 hours of suture induced-MCAO, vs estrogen vehicle (saline)) is “significant decrease in infarct size; also recorded: significant levels of neuroprotection”; in the test on male Sprague-Dawley rats [2] (estrogen 1×10-2 mg/kg i.v. 30 minutes after MCAO (immediately prior to suture removal), vs saline) it was “significant decrease in infarct size”; with male Sprague-Dawley rats [2] (estrogen 1×10-2 mg/kg i.v. 30 minutes after MCAO (immediately prior to suture removal), vs saline, listed as Estrogen), “showed neuroprotective abilities”.
